Source: ChEMBL document CHEMBL1201862, “PubChem BioAssay data set” (2004)
The source made the active and inactive calls.

Assays:
Hexokinase = Hexokinase (Trypanosoma brucei, UniProt Q38C41); assay: Confirmation assay for inhibitors of Trypanosoma brucei hexokinase 1-Analogue-first series. [Related pubchem assays (depositor defined):AID1430, AID1632, AID2516, AID2560, AID2579, AID2600, AID449725, AID492951]; format: functional
[1] = target: T1, Kappa-type opioid receptor (Homo sapiens, UniProt P41145); format: functional
T1 sequence (P41145 whole entry): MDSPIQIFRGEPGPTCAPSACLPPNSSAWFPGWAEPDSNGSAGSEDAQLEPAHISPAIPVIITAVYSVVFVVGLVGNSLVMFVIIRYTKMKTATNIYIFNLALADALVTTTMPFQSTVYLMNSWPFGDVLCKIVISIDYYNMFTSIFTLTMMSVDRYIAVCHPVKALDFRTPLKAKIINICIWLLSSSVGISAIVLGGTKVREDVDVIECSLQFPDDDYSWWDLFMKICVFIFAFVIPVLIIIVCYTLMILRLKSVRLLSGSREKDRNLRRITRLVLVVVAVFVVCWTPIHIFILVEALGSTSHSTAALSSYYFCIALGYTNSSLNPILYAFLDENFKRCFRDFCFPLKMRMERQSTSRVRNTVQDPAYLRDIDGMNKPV

[2] = target: Sphingosine 1-phosphate receptor 2 (Homo sapiens, UniProt O95136); assay: Dose Response Cell Based Assay for Antagonists of the S1P2 Receptor. [Related pubchem assays: 856, 736 ]; format: functional
[3] = target: Heat shock protein HSP 90-alpha (Homo sapiens, UniProt P07900); format: functional, organism-based
[4] = target: T2, Heat shock factor protein 1 (Mus musculus, UniProt P38532); assay: enhancement of HSF1-driven luciferase signal – cell-based, NIH3T3, luminescence, dose retest, confirmation (AID 435004); format: functional;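 note: stress induced by proteasome inhibitor MG132 added 30 min after compound; luciferase reporter driven by HSF1 response element in NIH3T3 cells; actives raise luminescence as potentiators of the MG132 stress response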
T2 sequence (P38532 whole entry): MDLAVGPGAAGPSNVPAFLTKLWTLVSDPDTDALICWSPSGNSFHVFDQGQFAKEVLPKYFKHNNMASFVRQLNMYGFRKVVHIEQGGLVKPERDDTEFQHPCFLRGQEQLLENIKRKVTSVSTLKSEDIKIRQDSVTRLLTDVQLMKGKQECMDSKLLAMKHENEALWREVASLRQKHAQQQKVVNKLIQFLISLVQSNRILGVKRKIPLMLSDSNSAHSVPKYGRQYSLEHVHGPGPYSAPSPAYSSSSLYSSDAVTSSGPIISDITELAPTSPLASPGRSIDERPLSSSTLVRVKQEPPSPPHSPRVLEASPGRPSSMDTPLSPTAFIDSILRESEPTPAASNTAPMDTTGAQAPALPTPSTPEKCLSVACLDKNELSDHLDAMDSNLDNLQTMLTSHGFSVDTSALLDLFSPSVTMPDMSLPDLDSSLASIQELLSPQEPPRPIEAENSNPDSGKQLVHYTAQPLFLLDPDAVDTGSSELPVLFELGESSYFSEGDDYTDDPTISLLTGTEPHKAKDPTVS

Beta-galactosidase = Beta-galactosidase (Escherichia coli, UniProt Q8VNN2); format: functional
[5] = target: T1, Kappa-type opioid receptor; format: functional; remark: listed apart in the source
Ion channel NompC = Ion channel NompC (Danio rerio, UniProt Q7T1G6); assay: Dose response cell-based high-throughput screening assay for agonists of the transient receptor potential channel N1 (TRPN1). [Related pubchem assays (depositor defined):AID1424, AID1448]; format: functional
[6] = target: T3, Voltage-gated N-type calcium channel alpha-1B subunit/Amyloid beta A4 precursor protein-binding family A member 1 (Homo sapiens, UniProt Q00975+Q02410); format: protein assay
T3 sequence (Q00975 whole entry): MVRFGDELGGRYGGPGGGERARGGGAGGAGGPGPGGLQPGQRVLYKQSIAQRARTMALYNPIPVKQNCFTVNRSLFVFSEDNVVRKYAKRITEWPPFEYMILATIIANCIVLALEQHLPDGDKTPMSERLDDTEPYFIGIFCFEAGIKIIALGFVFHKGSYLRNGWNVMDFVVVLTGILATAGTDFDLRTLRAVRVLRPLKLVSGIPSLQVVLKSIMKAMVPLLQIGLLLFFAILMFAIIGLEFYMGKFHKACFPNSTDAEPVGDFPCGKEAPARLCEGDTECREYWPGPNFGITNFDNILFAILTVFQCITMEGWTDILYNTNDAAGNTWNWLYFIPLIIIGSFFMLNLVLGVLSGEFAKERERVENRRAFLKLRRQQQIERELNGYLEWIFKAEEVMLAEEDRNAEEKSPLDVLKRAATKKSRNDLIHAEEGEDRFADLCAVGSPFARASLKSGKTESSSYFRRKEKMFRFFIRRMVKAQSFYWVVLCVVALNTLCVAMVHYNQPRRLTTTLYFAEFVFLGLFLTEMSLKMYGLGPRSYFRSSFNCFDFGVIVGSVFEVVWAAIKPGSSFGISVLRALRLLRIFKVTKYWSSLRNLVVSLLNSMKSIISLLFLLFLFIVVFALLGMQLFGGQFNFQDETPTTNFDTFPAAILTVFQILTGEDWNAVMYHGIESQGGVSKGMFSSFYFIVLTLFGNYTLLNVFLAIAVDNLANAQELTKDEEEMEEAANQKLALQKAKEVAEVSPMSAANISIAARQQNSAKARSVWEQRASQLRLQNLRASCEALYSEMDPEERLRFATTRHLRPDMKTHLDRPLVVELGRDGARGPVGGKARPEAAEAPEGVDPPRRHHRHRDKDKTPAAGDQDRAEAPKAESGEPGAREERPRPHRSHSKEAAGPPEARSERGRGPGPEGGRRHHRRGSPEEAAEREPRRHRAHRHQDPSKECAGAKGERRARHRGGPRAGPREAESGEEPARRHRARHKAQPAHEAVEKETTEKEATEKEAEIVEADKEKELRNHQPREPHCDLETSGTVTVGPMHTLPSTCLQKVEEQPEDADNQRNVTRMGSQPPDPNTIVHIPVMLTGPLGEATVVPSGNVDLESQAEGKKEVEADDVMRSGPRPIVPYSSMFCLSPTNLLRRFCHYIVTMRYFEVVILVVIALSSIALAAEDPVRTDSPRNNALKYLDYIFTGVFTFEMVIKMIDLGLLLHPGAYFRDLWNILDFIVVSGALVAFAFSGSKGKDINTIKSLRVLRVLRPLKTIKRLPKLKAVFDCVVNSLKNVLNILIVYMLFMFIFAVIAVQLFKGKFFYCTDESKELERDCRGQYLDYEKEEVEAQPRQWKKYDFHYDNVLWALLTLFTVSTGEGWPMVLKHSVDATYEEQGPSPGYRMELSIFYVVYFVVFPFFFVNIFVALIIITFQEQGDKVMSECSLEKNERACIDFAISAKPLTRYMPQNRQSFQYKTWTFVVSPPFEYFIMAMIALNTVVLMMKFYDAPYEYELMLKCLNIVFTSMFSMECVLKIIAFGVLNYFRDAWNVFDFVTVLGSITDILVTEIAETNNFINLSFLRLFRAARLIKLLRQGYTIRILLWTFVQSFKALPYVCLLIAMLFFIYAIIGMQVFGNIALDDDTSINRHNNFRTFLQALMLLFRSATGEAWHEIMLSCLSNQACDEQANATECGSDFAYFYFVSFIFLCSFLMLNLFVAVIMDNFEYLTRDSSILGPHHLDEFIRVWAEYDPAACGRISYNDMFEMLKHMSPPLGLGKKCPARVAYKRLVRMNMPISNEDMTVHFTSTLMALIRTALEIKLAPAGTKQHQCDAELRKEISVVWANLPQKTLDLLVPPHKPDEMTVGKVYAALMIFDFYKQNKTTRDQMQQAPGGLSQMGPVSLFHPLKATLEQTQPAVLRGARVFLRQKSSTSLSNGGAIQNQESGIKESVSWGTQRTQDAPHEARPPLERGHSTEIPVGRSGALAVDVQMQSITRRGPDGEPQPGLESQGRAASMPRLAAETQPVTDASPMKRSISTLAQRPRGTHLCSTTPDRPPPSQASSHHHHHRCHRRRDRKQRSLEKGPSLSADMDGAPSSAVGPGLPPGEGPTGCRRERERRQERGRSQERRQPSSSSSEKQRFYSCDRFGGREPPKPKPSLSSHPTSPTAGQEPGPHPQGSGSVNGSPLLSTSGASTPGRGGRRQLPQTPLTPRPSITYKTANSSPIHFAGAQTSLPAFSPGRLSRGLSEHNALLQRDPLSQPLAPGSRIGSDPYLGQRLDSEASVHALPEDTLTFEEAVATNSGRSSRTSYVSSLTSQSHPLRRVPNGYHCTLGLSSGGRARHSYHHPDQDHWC
T3 sequence (Q02410 whole entry): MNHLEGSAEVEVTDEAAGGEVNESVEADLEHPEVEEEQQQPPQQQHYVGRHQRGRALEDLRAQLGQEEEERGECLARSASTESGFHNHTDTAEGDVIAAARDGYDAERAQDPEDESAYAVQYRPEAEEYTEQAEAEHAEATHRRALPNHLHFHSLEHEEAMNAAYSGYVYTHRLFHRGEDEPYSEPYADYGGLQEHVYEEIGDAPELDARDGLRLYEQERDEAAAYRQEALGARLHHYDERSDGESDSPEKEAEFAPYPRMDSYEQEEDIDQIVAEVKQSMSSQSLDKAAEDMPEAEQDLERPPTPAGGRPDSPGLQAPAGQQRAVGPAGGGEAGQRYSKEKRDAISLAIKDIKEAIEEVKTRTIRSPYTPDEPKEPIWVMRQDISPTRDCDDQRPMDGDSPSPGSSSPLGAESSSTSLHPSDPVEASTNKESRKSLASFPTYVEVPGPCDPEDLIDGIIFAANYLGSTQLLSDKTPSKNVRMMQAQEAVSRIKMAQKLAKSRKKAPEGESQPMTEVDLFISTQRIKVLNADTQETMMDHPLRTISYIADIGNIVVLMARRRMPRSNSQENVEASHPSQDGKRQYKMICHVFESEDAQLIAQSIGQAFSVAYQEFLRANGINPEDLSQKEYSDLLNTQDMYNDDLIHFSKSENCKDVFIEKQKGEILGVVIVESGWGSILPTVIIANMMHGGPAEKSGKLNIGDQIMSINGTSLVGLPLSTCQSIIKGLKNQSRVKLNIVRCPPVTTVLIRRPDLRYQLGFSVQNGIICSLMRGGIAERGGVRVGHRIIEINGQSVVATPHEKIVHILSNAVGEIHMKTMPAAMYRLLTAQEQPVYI

[7] = target: T3, Voltage-gated N-type calcium channel alpha-1B subunit/Amyloid beta A4 precursor protein-binding family A member 1; format: protein assay; remark: listed apart in the source
Mucolipin-3 = Mucolipin-3 (Homo sapiens, UniProt Q8TDD5); assay: Fluorescence counterscreen assay for […] agonists: dose response cell-based high-throughput screening assay to identify agonists of the transient receptor potential channel ML3 (TRPML3). [Related pubchem assays: 1424, 1448 ]; format: functional
[8] = target: Alkaline phosphatase, placental type (Homo sapiens, UniProt P05187); assay: human placental alkaline phosphatase inhibition – biochemical, luminescence, confirmation (AID 1512); format: functional
Sequence of Alkaline phosphatase, placental type (P05187 whole entry): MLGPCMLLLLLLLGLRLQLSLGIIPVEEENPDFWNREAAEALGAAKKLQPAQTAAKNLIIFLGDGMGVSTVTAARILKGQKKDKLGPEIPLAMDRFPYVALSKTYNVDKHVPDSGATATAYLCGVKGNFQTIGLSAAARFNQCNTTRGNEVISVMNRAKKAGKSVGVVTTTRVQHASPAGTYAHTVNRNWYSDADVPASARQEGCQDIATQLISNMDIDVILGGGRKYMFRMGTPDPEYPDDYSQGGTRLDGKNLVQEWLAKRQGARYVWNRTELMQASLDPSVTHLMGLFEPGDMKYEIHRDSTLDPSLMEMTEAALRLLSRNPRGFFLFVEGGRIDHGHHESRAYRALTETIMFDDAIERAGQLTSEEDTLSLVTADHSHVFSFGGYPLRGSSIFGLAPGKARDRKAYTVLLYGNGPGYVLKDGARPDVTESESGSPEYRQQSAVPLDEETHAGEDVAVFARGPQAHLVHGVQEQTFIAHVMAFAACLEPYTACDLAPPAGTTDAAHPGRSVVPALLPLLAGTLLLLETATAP

[9] = target: Glyceraldehyde-3-phosphate dehydrogenase (Homo sapiens, UniProt P04406)
[10] = target: T4, Alkaline phosphatase, tissue-nonspecific isozyme (Homo sapiens, UniProt P05186); assay: potency against alkaline phosphatase TNAP – biochemical, luminescent, dose response, SAR follow-up (AID 1056)
T4 sequence (P05186 whole entry): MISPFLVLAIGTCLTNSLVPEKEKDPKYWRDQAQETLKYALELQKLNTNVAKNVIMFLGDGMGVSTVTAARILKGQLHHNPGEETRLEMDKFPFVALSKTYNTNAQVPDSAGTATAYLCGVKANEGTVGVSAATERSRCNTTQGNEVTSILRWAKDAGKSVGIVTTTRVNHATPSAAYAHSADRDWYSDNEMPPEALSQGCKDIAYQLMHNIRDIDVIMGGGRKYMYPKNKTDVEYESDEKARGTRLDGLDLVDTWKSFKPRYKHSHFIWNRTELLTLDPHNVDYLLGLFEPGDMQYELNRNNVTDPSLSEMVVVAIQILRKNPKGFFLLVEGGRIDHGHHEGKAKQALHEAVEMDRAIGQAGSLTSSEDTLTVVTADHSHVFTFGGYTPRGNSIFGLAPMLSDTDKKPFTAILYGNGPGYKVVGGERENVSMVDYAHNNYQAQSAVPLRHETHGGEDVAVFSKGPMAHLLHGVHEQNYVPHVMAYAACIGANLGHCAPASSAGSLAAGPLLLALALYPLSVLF

[11] = target: T5, Eukaryotic translation initiation factor 4H (Homo sapiens, UniProt Q15056); assay: eIF4H binding inhibition – biochemical, uHTS, fluorescence polarization, translation initiation inhibitor project, primary screen (AID 2012)
[12] = target: T6, Polyadenylate-binding protein 1 (Homo sapiens, UniProt P11940); assay: blockers of PABP interaction with poly(A) – biochemical, fluorescence polarization, […] (AID 2014)
T6 sequence (P11940 whole entry): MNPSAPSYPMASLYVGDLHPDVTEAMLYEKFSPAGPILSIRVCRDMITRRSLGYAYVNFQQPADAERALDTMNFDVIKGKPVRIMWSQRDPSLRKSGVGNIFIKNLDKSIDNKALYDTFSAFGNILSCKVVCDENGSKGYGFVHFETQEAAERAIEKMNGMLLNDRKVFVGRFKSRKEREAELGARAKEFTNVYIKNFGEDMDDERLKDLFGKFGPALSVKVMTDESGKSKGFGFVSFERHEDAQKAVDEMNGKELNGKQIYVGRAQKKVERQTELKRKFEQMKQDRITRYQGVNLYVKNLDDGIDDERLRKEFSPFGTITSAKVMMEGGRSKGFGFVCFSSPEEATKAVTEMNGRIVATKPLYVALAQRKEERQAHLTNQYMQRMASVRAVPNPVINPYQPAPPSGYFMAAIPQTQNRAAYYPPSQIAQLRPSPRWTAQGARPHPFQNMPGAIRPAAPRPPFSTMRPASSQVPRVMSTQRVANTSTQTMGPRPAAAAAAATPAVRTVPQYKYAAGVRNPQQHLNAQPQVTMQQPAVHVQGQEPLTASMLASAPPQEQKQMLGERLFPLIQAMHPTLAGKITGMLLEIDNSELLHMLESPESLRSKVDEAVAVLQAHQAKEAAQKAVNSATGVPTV

[13] = target: T6, Polyadenylate-binding protein 1; assay: PABP inhibition in translation initiation, SAR follow-up (AID 435018); format: functional
[14] = target: T5, Eukaryotic translation initiation factor 4H; assay: inhibitors of translation initiation factor eIF4H – SAR follow-up (AID 435011); format: functional
Melanocortin receptor 4 = Melanocortin receptor 4 (Homo sapiens, UniProt P32245); format: functional, cell-based;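 note: Cell-based assay with luminescence read-out, confirmatory dose-response testing for agonist activity of biased ligands at MC4R; human U2OS cells with tagged receptor and beta-arrestin; potency of agonists that increase receptor coupling to beta-arrestin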
[15] = target: T7, Ubiquitin-conjugating enzyme E2 N (Homo sapiens, UniProt P61088); format: functional;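 note: Dose-response confirmation in a TR-FRET assay detecting UBC13-driven polyubiquitin chain formation, inhibition measured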
T7 sequence (P61088 whole entry): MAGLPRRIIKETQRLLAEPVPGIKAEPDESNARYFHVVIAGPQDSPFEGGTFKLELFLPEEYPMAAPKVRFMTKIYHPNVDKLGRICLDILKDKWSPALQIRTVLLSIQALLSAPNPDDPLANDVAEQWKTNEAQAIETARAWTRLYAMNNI

INS1 = assay: INS-1E survival protection against cytokine death – cell-based, luminescence, retest, dose response (AID 449756); format: functional; conditions: Rattus norvegicus;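 note: cell death triggered by IL-1 beta plus TNF-alpha plus IFN-gamma mixture; protective hits raise ATP signal compared with cytokine alone wells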
Integrin alpha-4 = Integrin alpha-4 (Homo sapiens, UniProt P13612); assay: allosteric modulators of alpha4 integrin VLA-4 – cell-based, LIBS antibody binding, flow cytometry, SAR follow-up (AID 488791); format: functional
[16] = Luminescence Cell-Based Dose Retest to Confirm Inhibitors of Cancer Stem Cells. [Related pubchem assays (depositor defined):AID2717, AID2721]; format: functional; conditions: Homo sapiens
[17] = target: Neurotensin receptor type 1 (Homo sapiens, UniProt P30989); format: functional;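 note: Image-based confirmatory dose-response assay measuring agonist activity at NTR1; NTR1-expressing U2OS osteosarcoma cells imaged for beta-arrestin GFP spot formation; agonist potency where compounds increase beta-arrestin recruitment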
[18] = reduction of Shn3 3'UTR-driven luciferase in osteoblasts – cell-based, Clone20 osteoblasts, firefly luciferase, cherry-picked, dose response (AID 624132); format: functional;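 note: firefly luciferase luminescence from reporter carrying the Shn3 3'UTR in osteoblasts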
[19] = loss of viability in HepG2 cells – cell-based, CellTiter-Glo, cherry-picked, cytotoxicity control for Shn3 inhibitor project, dose response (AID 624134); format: functional
[20] = target: DNA damage-inducible transcript 3 protein (Mus musculus, UniProt P35639); format: functional, Cricetulus griseus
Protein RecA = target: T8, Protein RecA (Mycobacterium tuberculosis, UniProt P9WHJ3); assay: Fluorescence Cell-Free Homogeneous Dose Retest to Identify Inhibitors of RecA-Intein Splicing Activity. [Related pubchem assays (depositor defined):AID2097, AID2223, AID489010, AID492950]; format: functional
T8 sequence (P9WHJ3 whole entry): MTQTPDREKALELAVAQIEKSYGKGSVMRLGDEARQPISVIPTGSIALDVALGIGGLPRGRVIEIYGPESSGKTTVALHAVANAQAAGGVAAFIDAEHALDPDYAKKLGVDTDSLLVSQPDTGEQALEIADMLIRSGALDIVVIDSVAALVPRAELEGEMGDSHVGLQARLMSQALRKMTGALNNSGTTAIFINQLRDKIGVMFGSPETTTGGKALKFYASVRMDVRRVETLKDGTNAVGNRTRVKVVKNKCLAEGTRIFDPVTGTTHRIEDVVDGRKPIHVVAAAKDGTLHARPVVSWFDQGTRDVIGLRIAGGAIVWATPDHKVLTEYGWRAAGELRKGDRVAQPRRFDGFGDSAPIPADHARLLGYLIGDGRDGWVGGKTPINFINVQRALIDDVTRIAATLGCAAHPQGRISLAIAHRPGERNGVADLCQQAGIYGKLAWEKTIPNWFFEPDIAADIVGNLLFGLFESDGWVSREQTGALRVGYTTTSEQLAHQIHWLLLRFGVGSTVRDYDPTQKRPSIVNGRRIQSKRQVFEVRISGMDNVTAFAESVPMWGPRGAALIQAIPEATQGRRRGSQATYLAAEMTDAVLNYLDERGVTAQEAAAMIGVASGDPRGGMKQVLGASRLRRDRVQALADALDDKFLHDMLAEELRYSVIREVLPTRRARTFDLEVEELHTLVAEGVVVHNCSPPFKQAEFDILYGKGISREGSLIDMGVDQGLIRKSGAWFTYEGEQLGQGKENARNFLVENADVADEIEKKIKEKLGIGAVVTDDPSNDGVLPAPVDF

[21] = target: T9, Replicative DNA helicase DnaB (Mycobacterium tuberculosis, UniProt P9WMR3); assay: DnaB intein splicing inhibitors, dose response, biochemical, cell-free fluorescence (AID 449749); format: functional
T9 sequence (P9WMR3 whole entry): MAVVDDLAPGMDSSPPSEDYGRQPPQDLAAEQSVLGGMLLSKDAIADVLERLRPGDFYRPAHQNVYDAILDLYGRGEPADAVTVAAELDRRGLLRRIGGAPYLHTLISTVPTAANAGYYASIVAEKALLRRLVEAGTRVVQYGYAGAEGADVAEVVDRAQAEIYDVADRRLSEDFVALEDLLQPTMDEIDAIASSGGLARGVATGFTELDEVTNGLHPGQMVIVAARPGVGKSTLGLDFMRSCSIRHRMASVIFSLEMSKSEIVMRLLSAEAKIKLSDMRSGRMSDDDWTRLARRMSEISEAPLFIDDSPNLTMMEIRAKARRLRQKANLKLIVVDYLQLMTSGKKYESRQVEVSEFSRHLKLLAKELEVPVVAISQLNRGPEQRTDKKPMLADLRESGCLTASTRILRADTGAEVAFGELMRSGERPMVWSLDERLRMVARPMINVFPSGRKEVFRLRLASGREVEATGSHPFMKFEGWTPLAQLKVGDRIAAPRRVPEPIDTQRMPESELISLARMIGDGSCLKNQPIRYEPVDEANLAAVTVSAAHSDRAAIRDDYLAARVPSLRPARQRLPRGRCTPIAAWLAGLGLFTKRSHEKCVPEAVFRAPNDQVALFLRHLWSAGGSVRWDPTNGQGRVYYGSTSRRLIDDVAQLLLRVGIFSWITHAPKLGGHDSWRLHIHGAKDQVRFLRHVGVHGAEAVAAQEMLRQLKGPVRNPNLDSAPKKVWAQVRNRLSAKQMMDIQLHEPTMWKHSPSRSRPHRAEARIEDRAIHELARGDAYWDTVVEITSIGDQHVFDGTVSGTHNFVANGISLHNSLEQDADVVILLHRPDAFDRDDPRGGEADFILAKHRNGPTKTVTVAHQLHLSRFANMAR

[22] = NIH3T3 cell viability loss – ATP luminescence, mouse fibroblasts, counter-screen, dose response (AID 2010); format: functional, cell-based;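 note: cells exposed to compound for about 90 hours before reading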
[23] = Intein inhibitors as potential Tuberculosis drugs, a cytotoxicity screen. [Related pubchem assays (depositor defined):AID2221, AID2223, AID434968, AID435010, AID449749, AID449750, AID489010]; format: functional
[24] = Trypanosoma cruzi growth suppression in host cells – NIH3T3 host cells, beta-gal luminescence, confirmation (AID 2044); format: functional, cell-based;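 note: intracellular parasites grown in NIH/3T3 mouse fibroblasts as host cells; luminescent beta-galactosidase reporter signal from transgenic T. cruzi replicating inside host cells; inhibitors lower the luminescence signal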
[25] = non-specific 3'UTR reporter inhibition in Clone20-Shn3RL – cell-based, Renilla luciferase, cherry-picked, counter-screen for Shn3 inhibitor project, dose response (AID 624133); format: functional
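Throughout, for CC50: cells exposed to compound for 72 hours before luminescence readout.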

Structure (SMILES): Cn1c2ccccc2c(=O)n1-c1ccccc1
- IC50 (Hexokinase): > 25 µM (inactive)

Structure (SMILES): O=C(C#Cc1cccc([N+](=O)[O-])c1)c1ccccc1
- IC50 [1]: 22.8 µM (inactive)
- IC50 [2]: 3.69 µM (active)
- AC50 [3]: 0.592 µM (active)
- EC50 [4]: 1.08 µM (inconclusive)
- EC50 (Beta-galactosidase): > 31.5 µM (inactive)
- IC50 [5]: > 32 µM

Structure (SMILES): COc1cc(/C=C2\SC(=S)N(c3cccnc3)C2=O)ccc1O
- EC50 (Ion channel NompC): > 29.9 µM (inactive)
- IC50 [6]: 4.4 µM (active)
- IC50 [7]: > 50 µM (inactive)
- EC50 (Mucolipin-3): > 29.9 µM (not active)

Structure (SMILES): O=C(CSc1n[nH]c(-c2ccccc2Cl)n1)Nc1ccccc1F
- IC50 [8]: > 100 µM (inactive)
- IC50 [9]: > 100 µM (not active)
- IC50 [10]: 4.7 µM (active)

Structure (SMILES): COC(=O)c1c(Sc2ccccc2)c2ccccc2n1C
- IC50 [11]: > 100 µM (inactive)
- IC50 [12]: 2.76 µM (active)
- IC50 [13]: 13.8 µM (active)
- IC50 [14]: 4.23 µM (active)

Structure (SMILES): CN(C)CCOc1ccc(-c2c(-c3ccccc3)sc3ccccc23)cc1
- EC50 (Melanocortin receptor 4): > 89.2 µM (inactive)
- IC50 [15]: > 20 µM (inactive)
- AC50 (INS1): 6.82 µM (active)
- EC50 (Integrin alpha-4): > 30 µM (inactive)
- AC50 [16]: 2.93 µM (active)

Structure (SMILES): Cc1cc(Br)c2c(c1)/C(=C/C(=O)c1cccs1)C(=O)N2
- EC50 [17]: 17.4 µM (active)
- AC50 [18]: 19.9 µM (active)
- AC50 [19]: 48.5 µM (active)
- Absolute IC50 (CHOP) [20]: 10 µM
- EC50 (Protein RecA): 3.27 µM (active)
- AC50 [21]: 2.46 µM (active)
- EC50 [22]: > 60 µM (not active)
- CC50 [23]: 18.4 µM (active)
- EC50 [24]: 1.95 µM (active)
- AC50 [25]: 20.7 µM (active)
